# Test results: patent publication US9133255B2, “Products and methods using soy peptides to lower total and LDL cholesterol levels” (SOY LABS, LLC, priority 2006, dated 2015)
# Columns and labels:
# LDL-receptor = LDL-receptor expression in HepG2 cells, Western blot; type: cell-based; settings: 10 uM synthetic lunasin 24 h, cholesterol-free media 24 h, densitometry, FIG. 3
# Description: (§1) In cell culture of HepG2 liver cells, it is possible to activate SREBP and increase the expression of HMG-CoA reductase and LDL-receptor by removing cholesterol in the growth media. This can be achieved by exposing the cells to serum-free media for 24 hours (31, 32).
# (§2) In the second experiment, HepG2 cells (1×10^6) were treated with or without 10 uM synthetic lunasin in DMEM with 10% FBS for 24 hours before growth media is replaced with cholesterol-free media to activate SREBP. After 24 hours, total protein was extracted and 10 ug proteins loaded onto 10% Tris-glycine gels, electroblotted onto nitrocellulose membrane, and immunostained with primary antibodies raised against LDL-receptor and actin (to show equal loading of proteins). Spot densitometer values were obtained by digital scanning and Un-Scan It software, and represent mean and standard deviation of data from three separate experiments.
# p21/WAF1/Cipi = settings: NIH 3T3 cells pre-treated 24 hours, eight days after E1A transfection; cited from earlier work
# Sp1 = Sp1 level in HepG2 cells, Western blot; type: cell-based; settings: 10 uM synthetic lunasin
# Description: Unlike HMG-CoA reductase, SREBP activation of LDL-receptor by sterol depletion requires increased recruitment of Sp1 co-activator to a site adjacent to SREBP in the promoter/regulatory sequence of LDL-receptor gene (25). […] To test this hypothesis, the level of Sp1 was determined in lunasin-treated growth media and cholesterol-free media by Western analysis using Sp1 antibody, as follows: HepG2 cells (1×10^6) were grown from confluence in DMEM with 10% FBS for 24 hours before growth media was replaced with fresh growth media or cholesterol-free media (to activate SREBP) and treated with, or without 10 uM synthetic lunasin. After 24 hours, total protein was extracted from each treatment and 10 ug protein loaded onto 10% Tris-glycine gels, electroblotted onto nitrocellulose membrane, and immunostained with primary antibodies raised against Sp1 and actin (to show equal loading of proteins). Spot densitometer values were obtained by digital scanning and Un-Scan It software and represent data from one experiment.
# [1] = target: T1, histone H3 acetylation by PCAF (Gallus gallus, UniProt P84229); assay: H3 histone acetyltransferase (HAT) assay with PCAF, chicken erythrocyte core histones; type: biochemical; settings: vs untreated control, FIG. 7
# T1 construct: Core histones purified from chicken erythrocyte cells were used as templates in histone acetylase (HAT) reactions; purchased Upstate/Millipore; host or cells: chicken erythrocytes (histones)
# From the text: The invention further provides an in vitro assay that can be used to screen potential sources of lunasin or analogues, fragments or variants of lunasin for biologically active material useful in the methods of the present invention. In one embodiment of the present invention, core histones purified from acid-extracted proteins of HeLa cells and chicken erythrocyte cells as well as recombinant histone H3 (commercially available from Upstate/Millipore) are used as templates in histone acetylase (HAT) reactions using PCAF histone acetylase enzyme in the presence or absence of lunasin. […] Chemiluminescent signals from antibody complexes can be visualized using standard chemiluminescent reagents and exposed to Kodak BioMAX film, developed and spot densitometer measured by using digital scanner and UN-SCAN-IT software program from Silk Scientific (Orem, Utah).
# Biological activity of LeSC (A), LeSC+SF (B), digested LeSC+SF (C), digested LeSC (D), digested soy protein isolate (E) and digested soy concentrate (F) was measured using the H3 histone acetyltransferase (HAT) assay (see Example 8.) Around 100 mg total protein of LeSC, LeSC+SF, soy protein isolate and soy concentrate were digested by mixing pancreatin (Sigma Life Sciences, Saint Louis, Mo.) at 1:1 (w/w) and incubating for 30 min. at 40° C. […]
# [2] = test system: histone H3 and H4 acetylation; settings: cited from earlier work
# C3H/T101/2 cells = settings: cited from earlier work
# [3] = test system: non-tumorigenic (RWPE-1) prostate cells; settings: 2 uM lunasin, cited from earlier work
# skin tumor = settings: mice, applied topically, ethanol as delivery system; cited from earlier work
# [4] = test system: tumorigenic (RWPE-2) prostate cells; settings: 2 uM lunasin, cited from earlier work
# [5] = cited from earlier work
# [6] = target: T2, histone H3 acetylation by PCAF (Homo sapiens, UniProt P68431); assay: HAT assay with PCAF, HeLa core histones; type: biochemical; settings: FIG. 8
# T2 construct: The core histones isolated from untreated HeLa cells were used as a negative control; purchased Upstate/Millipore; host or cells: HeLa cells (histones)
# Description: A confirmatory experiment to determine the biological activity of digested and undigested LeSC and LeSC+SF was conducted using a different core histone template. This time we used the core histones extracted from HeLa tumor cells. Unlike the chicken erythrocyte cells, core histones from sodium butyrate treated HeLa cells are commercially available (Upstate/Millipore, Piscataway, N.J.), and can be used as a positive control for histone acetylation. The core histones isolated from untreated HeLa cells were used as a negative control (low levels of histone acetylation) and as template for the HAT assay.
# The HAT bioactivity assay was conducted using acid extracted core histones from HeLa cells (Upstate/Millipore) as a template (temp (−) control) for the PCAF catalyzed HAT reaction. […] The numbers below the legend indicate relative densitometer readings normalized using immunosignal from the template (temp). […]
# LeSC+SF was partially digested by mixing it with freshly prepared pancreatin solution (10 ug/mL of distilled water) in a 1:0.5, (w/w) ratio. […] However, the conditions for the partial digestion of LeSC+SF has to be determined empirically by analyzing digestion products for lunasin content (FIG. 6) and biological activity using the HAT assay (FIG. 8.)
# E1A-transfected cells = settings: cited from earlier work
# deacetylated histone H4 = deacetylated histone H4 (Homo sapiens, UniProt P62805); settings: cited from earlier work
# HMG-CoA reductase = HMG-CoA reductase expression in HepG2 cells, Western blot; type: cell-based; settings: 10 uM synthetic lunasin 24 h, cholesterol-free media 24 h, densitometry, FIG. 2
# Description: as §1
# as §2, with “the first” for “the second”, “media was” for “media is”, “ug protein was” for “ug proteins”, “against HMG-CoA reductase” for “against LDL-receptor”, “values are” for “values were”
substance,measurement,setting,value
"lunasin: natural, synthetically or recombinantly obtained soybean lunasin polypeptide (SEQ ID 2), small subunit of a cotyledon-specific 2S albumin",increase of LDL-receptor expression,LDL-receptor,more than 60%
same,increase in p21/WAF1/Cipi protein levels,p21/WAF1/Cipi,five-fold
same,further increase of Sp1 levels,"Sp1; cholesterol-free media, FIG. 4, one experiment",~60%
same,"Sp1 levels, lunasin-treated vs control","Sp1; growth media, FIG. 4",not significantly different
same,"H3 acetylation by PCAF (biological activity), undigested sample",[1],significant reduction in H3 acetylation
same,histone H3 and H4 acetylation,[2],inhibits histone H3 and H4 acetylation
same,reduction of foci formation,"C3H/T101/2 cells; cells pre-treated with lunasin, exposed to DMBA and MCA",70%
same,concentration sufficient to suppress foci formation,"C3H/T101/2 cells; single 24 hour exposure, assays lasted six weeks",125 nM
same,number of genes with greater than twofold change in expression,"[3]; 24 hours, of 14500 genes, RWPE-1 and RWPE-2 together",123 genes
same,number of genes up-regulated,"[3]; RWPE-1 cells, 24 hours",121 genes
same,genes down-regulated,[3]; non-tumorigenic epithelial cells,No genes were down-regulated
same,skin tumor formation,skin tumor,reduce skin tumor formation
same,number of genes up-regulated,"[4]; RWPE-2 cells, 24 hours",two
same,genes down-regulated,[4]; tumorigenic epithelial cells,No genes were down-regulated
same,water solubility,[5],water soluble
same,"H3 acetylation by PCAF (biological activity), undigested sample",[6],Significant reduction in H3 acetylation
same,apoptosis,E1A-transfected cells,induces apoptosis
same,binding to histones,deacetylated histone H4,binds preferentially to deacetylated histone H4
same,reduction of HMG-CoA reductase expression,HMG-CoA reductase,more than 50%
